This is an account of results in paper PMC8911585, “Unique Properties of Heme Binding of the Porphyromonas gingivalis HmuY Hemophore-like Protein Result from the Evolutionary Adaptation of the Protein Structure” (Molecules, 2022).

As usually defined, the Kd is the equilibrium constant for the complex coming apart. High values mean a looser complex, low ones a tighter complex.

The target of assay [1] is T1, HmuY (Porphyromonas gingivalis, UniProt A2I2W2, H134M). Nature of the assay: biochemical.
The target in assay [2] is T1, HmuY. The assay is described as follows: biochemical. The source holds these as a separate data set.

SMILES strings stand for the structures. Like-named read-outs stand apart in the source and are kept apart here.

T1 sequence (A2I2W2 26-216 H134M): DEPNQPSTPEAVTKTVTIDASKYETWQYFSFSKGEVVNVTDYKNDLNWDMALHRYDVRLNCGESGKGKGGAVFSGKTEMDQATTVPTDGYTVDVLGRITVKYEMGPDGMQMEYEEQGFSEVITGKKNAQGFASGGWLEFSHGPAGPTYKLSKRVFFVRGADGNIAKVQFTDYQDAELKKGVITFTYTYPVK

As for `C=CC1=C(C)C2=Cc3c(C=C)c(C)c4[n]3[Fe]([Cl])[n]3c(c(C)c(CCC(=O)O)c3=CC3=NC(=C4)C(C)=C3CCC(=O)O)=CC1=N2` [Fe(III)heme], the dissociation constant (Kd) at HmuY [1] is 12 µM.

In the case of `C=CC1=C(C)C2=Cc3c(C=C)c(C)c4[n]3[Fe][n]3c(c(C)c(CCC(=O)O)c3=CC3=NC(=C4)C(C)=C3CCC(=O)O)=CC1=N2` [Fe(II)heme], the Kd at HmuY [2] is 0.011 µM.
